In US20110142914A1, “INHALABLE COMPOSITIONS HAVING ENHANCED BIOAVAILABILITY” (CYTOTECH LABS, LLC, priority 2007, published 2011):

Tested on: IL-12
Assay: Inflammatory response to pulmonary administration: BAL supernatant ELISA for IL-12 elevation
Assay type: in vivo
Settings: mice
Experimental: Inflammatory response to the administration of CoQ10 (or the liposomal concentrate of CoQ10 produced in Example 1 above) to the lungs. Surgery is performed on sacrificed mice to expose the pleural cavity and trachea at the throat. […] An aliquot (about 0.75 mL) of phosphate buffered saline is instilled through the cannula into the lungs and removed to wash the bronchial and alveolar surfaces. This process is repeated for a total of three washes. The phosphate buffered saline containing cells is placed into centrifuge vials and centrifuged at about 3000 rpm (MiniSpin Plus, Eppendorf International, Hamburg, Del.). The supernatant is removed leaving the collected cells in the pellet. The supernatant from the BAL (Bronchoalveolar Lavage) is analyzed by enzyme-linked immunosorbent assay (ELISA) for IL-12 elevation (n=2 per sample tested).

- inflammation of the lung: not a cause of inflammation of the lung
- rise in IL-12 levels (BAL supernatant, ELISA) (n=2 per sample tested): not connected to a rise in IL-12 levels
Structure (SMILES): COC1=C(OC)C(=O)C(C/C=C(\C)CC/C=C(\C)CC/C=C(\C)CC/C=C(\C)CC/C=C(\C)CC/C=C(\C)CC/C=C(\C)CC/C=C(\C)CC/C=C(\C)CCC=C(C)C)=C(C)C1=O [CoQ10, Coenzyme Q10]
